Test results published in US6586461B1, “Prenyl transferase inhibitors” (Wayne State University, priority 1998, dated 2003).
One block for each compound: values may come before it.

Key:
H-Ras-GG cells = test: Cell morphology of lovastatin-treated H-Ras-GG cells; type: cell-based; settings: 25 μM lovastatin 24 h, then analog 24 h
Protocol: (§1) It has been well established that levels of lovastatin that completely block the mevalonate pathway result in cell cycle blockade, significant cytotoxicity, and a sharp change in cell appearance to a rounded morphology. The effects of lovastatin on the cell morphology of H-Ras-F and H-Ras-GG cells treated with FPP, GGPP, 3-vFPP, 3-vGGPP, 3-alFPP, and 3-alGGPP were photographed and the results are shown on FIG. 9 (H-Ras-F) and 8 (H-Ras-GG), respectively. The H-Ras-F and H-Ras-GG cells were grown in six-well plates to 70-80% confluence. After treating the cells with lovastatin (25 μM) for 24 hour, the indicated FPP or GGPP analogs (re-suspended in media) were added directly to the cell media. Photographs were taken after an additional 24 hour incubation period.

recombinant mGGTase I = recombinant mGGTase I (Homo sapiens, UniProt P49354+P53609); test: GGTase I scintillation proximity assay; type: biochemical; settings: tritiated GGPP
Protocol: (§2) The method is described in detail in Yokama, et al., J. Biol. Chem., Vol. 272, No. 7, pages 3944-3952 (February 1997). The FTase, tritiated FPP, and the peptide were incubated at 37° C. for 30 minutes in a buffer. After incubation, a stop reagent and streptavidin beads (Amersham) were added. The radioactive product was counted on a Wallac Microbeta 1450 scintillation counter. The kinetic fits were derived from a nonlinear least squares computer fit of the data. The Ki values were determined using the same assay system with varying concentrations of tritiated FPP.
GGTase I values were determined in a similar manner using recombinant mGGTase I, tritiated GGPP, and the peptide Biotin-Aha-Thr-Lys-Cys-Val-Ile-Leu-OH.

H-Ras-F cells [1] = test: Cell morphology of lovastatin-treated H-Ras-F cells; type: cell-based; settings: 25 μM lovastatin 24 h, then analog 24 h
Protocol: as §1

[2] = molecular target: recombinant mFTase (affinity purified rat FPTase) (Rattus norvegicus, UniProt Q02293+Q04631); test: FTase scintillation proximity assay; type: biochemical; settings: for IC50: recombinant mFTase, tritiated FPP 0.12 μM, peptide 0.1 μM; for FTase/GGTase: selectivity mFTase against mGGTase I
Protocol: as §2

[3] = system: H-Ras-GG in H-Ras-GG cells; test: Subcellular fractionation / Western blot of Ras in lovastatin-treated H-Ras-GG cells; type: cell-based
Protocol: H-Ras-F (A) or H-Ras-GG (B) cells were treated with 25 μM lovastatin for 24 h after which the indicated FPP or GGPP analogs (resuspended in media) were added directly to the cell media. Following an additional 24 h incubation period, the cells were harvested, lysed and the membranes (M) separated from the cytosol (C). After solubilization of the membrane fraction, Ras protein was immunoprecipitated from both the membrane and cytosolic fractions by the addition of the Y13-259 antibody (OP04 from Oncogene Science). The presence of Ras protein in each fraction was analyzed by Western transfer techniques. Incubation with the primary antibody (pan-ras Ab-2 from Oncogene Science) and an anti-mouse HRP conjugate secondary antibody (Amersham) was employed for detection of the ras protein. Blots were developed using Enhanced Chemiluminescence techniques (Amersham). The technique is described in detail by Scholten, et al., Bioorg. Med. Chem., Vol. 4, pages 1537-1543 (1992).
The selectivity and mechanism of the observed cell growth inhibition was further probed by studying the effects of the 3-vinyl and 3-allyl GGPP analogs on the subcellular distribution of the geranylgeranylated protein variant in H-Ras-GG cells in a manner similar to that described for 3-vFPP and 3-alFPP. The Western blot is shown on FIG. 8. With H-Ras-GG cells, as with H-Ras-F cells, blockage of the mevalonate pathway results in a shift in the subcellular location of the Ras protein from the membrane to the cytosol.

[4] = system: NIH 3T3 fibroblasts transfected with a transforming form of c-raf [Raf]; test: Soft agar anchorage-independent growth, Raf cells; type: cell-based; settings: 2 weeks, mean of two tests
Protocol: (§3) Presumably, the non-polar alcohols pass through the cell membrane and are then diphosphorylated by an as yet uncharacterized kinase to FPP or GGPP.
(§4) The 3-substituted analogs were evaluated as inhibitors of the growth of ras-transformed cells by comparing their relative degree of activity against an isogenic panel of transformed cell lines, comprised of NIH 3T3 fibroblasts transfected with either H-Ras(61 L) [H-Ras-F], H-Ras(61 L)CVLL [H-Ras-GG], or a transforming form of c-raf [Raf]. The H-Ras-F, H-Ras-GG, and raf transformed NIH3T3 cell lines have been previously described in Cox, et al., Molecular and Cellular Biology, Vol. 12, No. 6, pages 2606-2615 (1992). The cells were grown prior to plating in Dulbecco's modified Eagle medium supplemented with 10% calf serum and 1% antibiotic/antimycotic at 37° C. and 10% CO2. Experiments were carried out in 6-well dishes in a two layer agar system (0.6% bottom layer and 0.3% top layer). Cells were incorporated into the top layer along with varying concentrations of the compound prepared in ethanol. Compound addition occurred only at the time the cells were seeded. Subsequent incubation was at 37° C. with 10% CO2 for 2 weeks. Colonies were stained with 0.5 ml/well of 1 mg/ml p-iodonitrotetrazolium violet (Sigma) for 24 hours prior to quantitation by image analysis.

[5] = system: NIH 3T3 fibroblasts transfected with H-Ras(61 L) [H-Ras-F]; test: Soft agar anchorage-independent growth, H-Ras-F cells; type: cell-based; settings: soft agar, 2 weeks; read-out: Mean IC50 (±S.E.) H-Ras-F
Protocol: as §3, §4

[6] = system: NIH 3T3 fibroblasts transfected with H-Ras(61 L)CVLL [H-Ras-GG]; test: Soft agar anchorage-independent growth, H-Ras-GG cells; type: cell-based; settings: 2 weeks, read-out: Mean IC50 (±S.E.) H-Ras-GG
Protocol: as §3, §4

[7] = system: HPAC (human pancreatic adenocarcinoma cells); test: Proliferation of HPAC cells, Trypan Blue exclusion; type: cell-based; settings: 48 hours
Protocol: The malignant human cell line HPAC (human pancreatic adenocarcinoma cells) was used in this study. The cells were seeded at a concentration of 2×10^5/ml in 24 well culture plate (Costar, Cambridge, Mass). […] Varying amounts of the stock solutions were then used to treat the HPAC cells. The final concentration of the farnesol analogs in the culture plate wells ranged from 0 nM (ethanol-treated control) to 500 nM. The plate was then incubated at 37° C. under a 5% CO2-humidified atmosphere for 48 hours. The total viable cells from each well were determined by Trypan Blue (0.4%) exclusion (Gibco, N.Y.) followed by cell counting.

H-Ras-F cells [8] = test: Proliferation of H-Ras-F cells (control experiments); type: cell-based
H-Ras-F cells [9] = test: Incorporation of radiolabel into proteins of H-Ras-F cells; type: cell-based; settings: 5 μM, 18 h, lovastatin-treated H-Ras-F cells
Protocol: H-Ras-F cells were treated with 25 μM lovastatin for 24 h after which the following were added directly to four samples of the cell media: (1) control-untreated, (2) 3-vinyl-1-[^3H]-farnesol (5 μM, 1.34 μCi/ml), (3) 1-[^3H]-FPP (3 μM, 50 μCi/ml; Amersham), and (4) 1-[^3H]-farnesol (3 μM, 50 μCi/ml; American Radiolabeled Chemicals). […] After drying, the membranes were sprayed with En^3Hance (Amersham) and exposed to film (Hyperfilm MP, Amersham) for a period of time prior to developing (4 days for 1-[^3H]-FPP and 1-[^3H]-farnesol) and 28 days for 3-vinyl-1-[^3H]-farnesol). The exposed films are shown on FIG. 8 where the control and radioactive bands are designated as indicated above.

- IC50 (recombinant mGGTase I): 3.38 µM
- IC50 [2]: 0.453 µM
- FTase/GGTase [2]: 7.5
Compound: C=CC/C(=C\COP(=O)(O)OP(=O)(O)O)CC/C=C(\C)CC/C=C(\C)CCC=C(C)C [Compound 3-alGGPP, 3-Allyl-7,11,15-trimethylhexadeca-2(Z),6(E),10(E),14-tetraene diphosphate]
- Restoration of flattened morphology of lovastatin-treated H-Ras-GG cells (H-Ras-GG cells): partially restore
- Reversal of rounded morphology of lovastatin-treated H-Ras-F cells (H-Ras-F cells [1]): reversion in morphology

Compound: C=CC/C(=C\CO)CC/C=C(\C)CC/C=C(\C)CCC=C(C)C [3-allyl Geranylgeraniol, 3-Allyl-7,11,15-trimethylhexadeca-2(Z),6(E),10(E),14-tetraen-1-ol]
- Protein geranylgeranylation in cells ([3]; summary statement): inhibits protein geranylgeranylation
- IC50 [4]: > 25 µM
- IC50 [5]: > 25 µM
- IC50 [6]: 4.6 µM

Compound: 3-Vinyl-7,11-dimethyldodeca-2(Z),6(E),10-trien-1-ol [3-vinyl Farnesol]
- Effect on HPAC cells at 100 nM ([7]; 100 nM): cytostasis
- Viable HPAC cell count at 100 nM ([7]; 100 nM, seeded 2×10^5/ml, control well 2.2×10^6 cells): ~2×10^5 /well
- Effect on HPAC cells at 500 nM ([7]; listed as 3-Vinylfarnesol): complete cytotoxicity
- Effect on HPAC cells at 500 nM ([7]; listed as 3-vinylfarnesol): potently cytotoxic
- Effect on growth of H-Ras-F cells (H-Ras-F cells [8]; concentration not given): complete inhibition of growth

- IC50 (recombinant mGGTase I): 3.05 µM
- IC50 [2]: 0.715 µM
- FTase/GGTase [2]: 4.3
Compound: 3-vinyl geranylgeranyl diphosphate [Compound 3-vGGPP]
- Membrane localization of H-Ras-GG ([3]; H-Ras-GG cells, lovastatin-treated): resulted in restoration of the membrane localization of H-Ras-GG
- Restoration of flattened morphology of lovastatin-treated H-Ras-GG cells (H-Ras-GG cells): completely restore
- Reversal of rounded morphology of lovastatin-treated H-Ras-F cells (H-Ras-F cells [1]): restore the flattened morphology of cells

Compound: CC(C)=CCCC(C)=CCCC(C)=CCO [farnesol, reference compound]
- Effect on HPAC cells at 500 nM [7]: no effect
- Effect on proliferation of H-Ras-F cells (H-Ras-F cells [8]; 30 μM, data not shown): little effect

Compound: [3H]C(O)C=C(C=C)CCC=C(C)CCC=C(C)C (centres unmarked) [3-vinyl-1-[^3H]-farnesol]
- Radiolabel incorporation into protein bands (H-Ras-F cells [9]): the radiolabel migrates with the same protein bands as seen when cells are treated with tritiated farnesol and FPP
